Assays:
Assay in all cases: 33PanQinase kinome-wide selectivity profile (Reaction Biology)
Format in all cases: biochemical
350 wild-type kinases [1] = target: T1, 350 wild-type kinases (Homo sapiens, UniProt P41240); conditions: kinase CSK, ATP 1 µM, singlicate
T1 construct: purchased Reaction Biology (assay service)
Method: (§1) Compound RN341 was tested at two concentrations of 1 and 10 μM against a panel of 350 wild-type kinases in the ^33PanQinase assay. The assay was performed by Reaction Biology (www.reactionbiology.com/services/kinase-assays/kinase-panel-screening/).

350 wild-type kinases [2] = target: T2, 350 wild-type kinases (Homo sapiens, UniProt Q00526); conditions: ATP 3 µM, singlicate; for Residual activity (% of control), CDK3/CycC: kinase CDK3/CycC; for Residual activity (% of control), CDK3/CycE1: kinase CDK3/CycE1
T2 construct: purchased Reaction Biology (assay service)
Method: as §1

350 wild-type kinases [3] = target: T3, 350 wild-type kinases (Homo sapiens, UniProt Q96RR4); conditions: kinase CAMKK2, ATP 3 µM, singlicate
T3 construct: purchased Reaction Biology (assay service)
Method: as §1

350 wild-type kinases [4] = target: T4, 350 wild-type kinases (Homo sapiens, UniProt Q09013); conditions: kinase DMPK, ATP 0,1 µM, singlicate
T4 construct: purchased Reaction Biology (assay service)
Method: as §1

350 wild-type kinases [5] = target: T5, 350 wild-type kinases (Homo sapiens, UniProt P51451); conditions: kinase BLK, ATP 0,3 µM, singlicate
T5 construct: purchased Reaction Biology (assay service)
Method: as §1

350 wild-type kinases [6] = target: T6, 350 wild-type kinases (Homo sapiens, UniProt P48729); conditions: kinase CK1alpha1, ATP 0,3 µM, singlicate
T6 construct: purchased Reaction Biology (assay service)
Method: as §1

350 wild-type kinases [7] = target: T7, 350 wild-type kinases (Homo sapiens, UniProt P49760); conditions: kinase CLK2, ATP 0,3 µM, singlicate
T7 construct: purchased Reaction Biology (assay service)
Method: as §1

350 wild-type kinases [8] = target: T8, 350 wild-type kinases (Homo sapiens, UniProt P19784); conditions: kinase CK2alpha2, ATP 0,1 µM, singlicate
T8 construct: purchased Reaction Biology (assay service)
Method: as §1

350 wild-type kinases [9] = target: T9, 350 wild-type kinases (Homo sapiens, UniProt P06493); conditions: singlicate; for Residual activity (% of control), CDK1/CycA2: kinase CDK1/CycA2, ATP 0,3 µM; for Residual activity (% of control), CDK1/CycB1: kinase CDK1/CycB1; for Residual activity (% of control), CDK1/CycB1 / Residual activity (% of control), CDK1/CycE1: ATP 1 µM; for Residual activity (% of control), CDK1/CycE1: kinase CDK1/CycE1
T9 construct: purchased Reaction Biology (assay service)
Method: as §1

350 wild-type kinases [10] = target: T10, 350 wild-type kinases (Homo sapiens, UniProt Q16566); conditions: kinase CAMK4, ATP 1 µM, singlicate
T10 construct: purchased Reaction Biology (assay service)
Method: as §1

350 wild-type kinases [11] = target: T11, 350 wild-type kinases (Homo sapiens, UniProt P30530); conditions: kinase AXL, ATP 0,3 µM, singlicate
T11 construct: purchased Reaction Biology (assay service)
Method: as §1

350 wild-type kinases [12] = target: T12, 350 wild-type kinases (Homo sapiens, UniProt P07333); conditions: kinase CSF1R, ATP 0,3 µM, singlicate
T12 construct: purchased Reaction Biology (assay service)
Method: as §1

350 wild-type kinases [13] = target: T13, 350 wild-type kinases (Homo sapiens, UniProt Q00534); conditions: singlicate; for Residual activity (% of control), CDK6/CycD1: kinase CDK6/CycD1, ATP 3 µM; for Residual activity (% of control), CDK6/CycD2: kinase CDK6/CycD2, ATP 10 µM; for Residual activity (% of control), CDK6/CycD3: kinase CDK6/CycD3, ATP 30 µM
T13 construct: purchased Reaction Biology (assay service)
Method: as §1

350 wild-type kinases [14] = target: T14, 350 wild-type kinases (Homo sapiens, UniProt Q9HAZ1); conditions: kinase CLK4, ATP 0,1 µM, singlicate
T14 construct: purchased Reaction Biology (assay service)
Method: as §1

350 wild-type kinases [15] = target: T15, 350 wild-type kinases (Homo sapiens, UniProt O14965); conditions: kinase AuroraA, ATP 10 µM, singlicate
T15 construct: purchased Reaction Biology (assay service)
Method: as §1

350 wild-type kinases [16] = target: T16, 350 wild-type kinases (Homo sapiens, UniProt P49759); conditions: kinase CLK1, ATP 0,3 µM, singlicate
T16 construct: purchased Reaction Biology (assay service)
Method: as §1

350 wild-type kinases [17] = target: T17, 350 wild-type kinases (Homo sapiens, UniProt O14578); conditions: kinase CIT 1-450, ATP 0,1 µM, singlicate
T17 construct: purchased Reaction Biology (assay service)
Method: as §1

T2 sequence (Q00526 whole entry): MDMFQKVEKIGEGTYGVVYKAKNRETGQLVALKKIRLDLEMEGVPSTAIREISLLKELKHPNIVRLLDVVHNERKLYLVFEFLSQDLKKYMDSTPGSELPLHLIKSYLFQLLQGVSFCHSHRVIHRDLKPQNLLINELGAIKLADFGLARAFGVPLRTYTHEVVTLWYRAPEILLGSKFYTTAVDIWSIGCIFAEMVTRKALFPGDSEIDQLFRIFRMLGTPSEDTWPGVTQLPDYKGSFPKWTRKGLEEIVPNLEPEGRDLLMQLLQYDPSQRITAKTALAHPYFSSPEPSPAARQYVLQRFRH
T13 sequence (Q00534 whole entry): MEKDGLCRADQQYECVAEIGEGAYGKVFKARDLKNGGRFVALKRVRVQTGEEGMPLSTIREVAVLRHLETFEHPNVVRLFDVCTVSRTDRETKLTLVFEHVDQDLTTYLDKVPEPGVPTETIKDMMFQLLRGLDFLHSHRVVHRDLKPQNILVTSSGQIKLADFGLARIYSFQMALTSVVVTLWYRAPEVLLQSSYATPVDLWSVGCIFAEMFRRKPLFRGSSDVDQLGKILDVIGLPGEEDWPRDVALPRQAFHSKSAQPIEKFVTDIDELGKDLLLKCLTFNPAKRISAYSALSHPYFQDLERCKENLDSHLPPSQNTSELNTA
T9 sequence (P06493 whole entry): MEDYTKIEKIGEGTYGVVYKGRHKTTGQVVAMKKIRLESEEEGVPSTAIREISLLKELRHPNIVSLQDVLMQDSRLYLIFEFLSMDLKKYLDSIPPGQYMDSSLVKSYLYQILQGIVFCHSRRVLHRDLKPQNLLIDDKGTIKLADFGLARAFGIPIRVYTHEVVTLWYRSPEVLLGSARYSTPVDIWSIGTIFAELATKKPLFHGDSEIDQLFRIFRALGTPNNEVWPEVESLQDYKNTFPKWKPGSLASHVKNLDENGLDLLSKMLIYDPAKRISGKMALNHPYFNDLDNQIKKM
T14 sequence (Q9HAZ1 whole entry): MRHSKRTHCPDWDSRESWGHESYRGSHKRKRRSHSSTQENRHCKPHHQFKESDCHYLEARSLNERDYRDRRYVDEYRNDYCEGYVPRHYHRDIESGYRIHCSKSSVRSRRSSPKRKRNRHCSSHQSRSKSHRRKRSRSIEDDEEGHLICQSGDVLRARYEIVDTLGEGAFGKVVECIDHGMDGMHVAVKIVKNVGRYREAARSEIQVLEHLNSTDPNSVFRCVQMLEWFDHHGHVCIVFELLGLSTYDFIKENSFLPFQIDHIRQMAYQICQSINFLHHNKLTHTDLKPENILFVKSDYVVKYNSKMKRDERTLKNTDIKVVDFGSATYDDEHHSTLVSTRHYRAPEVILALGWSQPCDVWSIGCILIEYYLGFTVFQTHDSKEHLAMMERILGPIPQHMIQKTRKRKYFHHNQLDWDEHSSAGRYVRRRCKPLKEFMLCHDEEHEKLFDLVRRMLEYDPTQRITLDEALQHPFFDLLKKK
T6 sequence (P48729 whole entry): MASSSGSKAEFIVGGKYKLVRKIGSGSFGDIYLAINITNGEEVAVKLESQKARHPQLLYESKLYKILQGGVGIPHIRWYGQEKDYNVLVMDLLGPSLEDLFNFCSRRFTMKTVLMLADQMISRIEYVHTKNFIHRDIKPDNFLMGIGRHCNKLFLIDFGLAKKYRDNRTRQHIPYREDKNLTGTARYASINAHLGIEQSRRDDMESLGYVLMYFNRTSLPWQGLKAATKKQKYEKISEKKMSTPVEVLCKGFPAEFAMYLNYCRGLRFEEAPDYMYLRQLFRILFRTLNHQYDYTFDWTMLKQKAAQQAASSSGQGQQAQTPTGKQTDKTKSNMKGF
T15 sequence (O14965 whole entry): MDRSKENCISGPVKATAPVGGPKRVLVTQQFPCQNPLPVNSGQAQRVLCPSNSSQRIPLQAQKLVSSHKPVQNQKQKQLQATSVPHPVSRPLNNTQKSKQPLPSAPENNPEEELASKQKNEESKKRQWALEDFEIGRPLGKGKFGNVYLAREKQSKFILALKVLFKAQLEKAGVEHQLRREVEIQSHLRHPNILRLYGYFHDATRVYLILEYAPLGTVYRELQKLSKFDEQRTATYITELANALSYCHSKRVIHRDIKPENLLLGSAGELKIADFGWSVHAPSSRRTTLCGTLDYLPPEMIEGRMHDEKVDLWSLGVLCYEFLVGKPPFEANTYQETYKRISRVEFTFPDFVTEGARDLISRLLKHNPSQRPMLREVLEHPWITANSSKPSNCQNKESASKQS
T17 sequence (O14578 whole entry): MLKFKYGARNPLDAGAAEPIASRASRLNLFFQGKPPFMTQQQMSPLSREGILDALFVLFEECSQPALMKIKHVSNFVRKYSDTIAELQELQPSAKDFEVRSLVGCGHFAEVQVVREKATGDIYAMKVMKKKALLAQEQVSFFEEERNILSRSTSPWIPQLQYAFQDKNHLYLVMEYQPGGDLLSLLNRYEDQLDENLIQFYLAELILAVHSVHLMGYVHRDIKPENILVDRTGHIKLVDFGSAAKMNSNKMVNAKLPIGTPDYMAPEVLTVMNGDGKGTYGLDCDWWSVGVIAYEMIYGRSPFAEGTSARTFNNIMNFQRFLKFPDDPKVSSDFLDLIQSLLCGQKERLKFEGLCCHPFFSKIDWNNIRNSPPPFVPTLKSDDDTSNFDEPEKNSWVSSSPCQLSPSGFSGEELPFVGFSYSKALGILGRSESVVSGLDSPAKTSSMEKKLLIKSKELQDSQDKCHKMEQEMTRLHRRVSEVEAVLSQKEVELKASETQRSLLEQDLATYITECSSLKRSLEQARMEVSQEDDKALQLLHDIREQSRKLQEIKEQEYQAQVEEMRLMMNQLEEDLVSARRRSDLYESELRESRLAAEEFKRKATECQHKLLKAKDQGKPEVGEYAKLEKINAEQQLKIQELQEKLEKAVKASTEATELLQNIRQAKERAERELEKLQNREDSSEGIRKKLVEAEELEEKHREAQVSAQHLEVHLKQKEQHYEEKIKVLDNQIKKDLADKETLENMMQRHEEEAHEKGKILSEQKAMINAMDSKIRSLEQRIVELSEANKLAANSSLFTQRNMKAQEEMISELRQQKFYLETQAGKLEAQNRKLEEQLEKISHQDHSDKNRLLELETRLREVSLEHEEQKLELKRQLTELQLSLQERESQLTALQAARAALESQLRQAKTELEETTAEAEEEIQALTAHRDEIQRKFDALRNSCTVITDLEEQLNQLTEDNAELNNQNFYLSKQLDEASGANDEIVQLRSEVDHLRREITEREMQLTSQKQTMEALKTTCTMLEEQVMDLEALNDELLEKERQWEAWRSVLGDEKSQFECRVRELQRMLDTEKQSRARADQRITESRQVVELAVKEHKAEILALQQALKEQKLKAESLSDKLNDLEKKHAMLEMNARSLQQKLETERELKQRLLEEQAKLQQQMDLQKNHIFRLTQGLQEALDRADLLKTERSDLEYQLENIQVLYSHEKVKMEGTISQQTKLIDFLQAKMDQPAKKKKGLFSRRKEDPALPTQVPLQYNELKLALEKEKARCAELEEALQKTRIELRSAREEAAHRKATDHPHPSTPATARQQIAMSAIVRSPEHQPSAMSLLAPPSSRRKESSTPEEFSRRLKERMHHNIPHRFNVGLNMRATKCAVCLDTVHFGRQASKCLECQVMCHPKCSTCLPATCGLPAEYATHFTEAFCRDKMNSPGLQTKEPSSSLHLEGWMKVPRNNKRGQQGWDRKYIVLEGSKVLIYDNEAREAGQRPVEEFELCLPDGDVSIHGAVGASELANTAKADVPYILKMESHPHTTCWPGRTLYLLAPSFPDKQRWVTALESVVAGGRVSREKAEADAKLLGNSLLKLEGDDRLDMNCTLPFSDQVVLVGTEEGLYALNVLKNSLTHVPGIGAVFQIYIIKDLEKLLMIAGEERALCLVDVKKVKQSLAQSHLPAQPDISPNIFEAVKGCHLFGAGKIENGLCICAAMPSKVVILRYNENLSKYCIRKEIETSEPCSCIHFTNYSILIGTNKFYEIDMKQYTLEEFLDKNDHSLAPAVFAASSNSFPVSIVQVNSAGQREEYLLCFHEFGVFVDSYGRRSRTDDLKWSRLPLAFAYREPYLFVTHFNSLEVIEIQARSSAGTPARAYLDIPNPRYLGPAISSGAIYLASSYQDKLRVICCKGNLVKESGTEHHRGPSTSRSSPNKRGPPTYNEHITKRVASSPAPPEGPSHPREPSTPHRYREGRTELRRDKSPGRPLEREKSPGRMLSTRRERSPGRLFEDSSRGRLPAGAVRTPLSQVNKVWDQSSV
T7 sequence (P49760 whole entry): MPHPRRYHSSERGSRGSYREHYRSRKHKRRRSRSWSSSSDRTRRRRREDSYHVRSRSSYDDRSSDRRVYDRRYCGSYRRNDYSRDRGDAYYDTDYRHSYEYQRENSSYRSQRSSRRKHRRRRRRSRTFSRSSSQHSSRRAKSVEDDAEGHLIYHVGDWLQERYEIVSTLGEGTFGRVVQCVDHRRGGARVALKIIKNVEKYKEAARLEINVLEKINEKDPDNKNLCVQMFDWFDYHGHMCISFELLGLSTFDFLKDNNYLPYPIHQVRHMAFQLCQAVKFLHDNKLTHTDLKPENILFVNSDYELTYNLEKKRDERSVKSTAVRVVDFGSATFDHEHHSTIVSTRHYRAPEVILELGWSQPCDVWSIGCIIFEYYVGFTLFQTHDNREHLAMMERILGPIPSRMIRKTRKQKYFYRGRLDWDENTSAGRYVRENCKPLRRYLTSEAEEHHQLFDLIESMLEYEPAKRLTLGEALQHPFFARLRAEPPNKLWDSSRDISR
T8 sequence (P19784 whole entry): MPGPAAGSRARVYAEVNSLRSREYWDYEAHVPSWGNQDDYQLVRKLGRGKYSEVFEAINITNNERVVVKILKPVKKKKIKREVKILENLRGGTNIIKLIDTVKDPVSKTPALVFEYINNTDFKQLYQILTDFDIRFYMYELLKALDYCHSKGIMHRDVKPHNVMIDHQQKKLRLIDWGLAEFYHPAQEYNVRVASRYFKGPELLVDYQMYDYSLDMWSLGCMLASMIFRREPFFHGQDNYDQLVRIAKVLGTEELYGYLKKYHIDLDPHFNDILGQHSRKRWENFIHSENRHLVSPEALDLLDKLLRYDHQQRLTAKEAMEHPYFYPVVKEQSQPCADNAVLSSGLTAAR

`CCSc1nc(NC)c2c(-c3cccc(NC(=O)Nc4cc(C(C)(C)C)nn4-c4ccc(C)cc4)c3)c[nH]c2n1` [Compound 32] was tested, and the “Residual activity (% of control), CSK” value (350 wild-type kinases [1]; Assay Conc. 1.0E-05 M) was 69 % of control, the “Residual activity (% of control), CSK” value (350 wild-type kinases [1]; Assay Conc. 1.0E-06 M) was 97 % of control and the “Residual activity (% of control), CDK3/CycC” value (350 wild-type kinases [2]; Assay Conc. 1.0E-05 M) was 65 % of control. The “Residual activity (% of control), CDK3/CycC” value (350 wild-type kinases [2]; Assay Conc. 1.0E-06 M) was 106 % of control, the “Residual activity (% of control), CDK3/CycE1” value (350 wild-type kinases [2]; Assay Conc. 1.0E-05 M) was 75 % of control and the “Residual activity (% of control), CDK3/CycE1” value (350 wild-type kinases [2]; Assay Conc. 1.0E-06 M) was 115 % of control. The “Residual activity (% of control), CAMKK2” value (350 wild-type kinases [3]; Assay Conc. 1.0E-05 M) was 85 % of control, the “Residual activity (% of control), CAMKK2” value (350 wild-type kinases [3]; Assay Conc. 1.0E-06 M) was 119 % of control and the “Residual activity (% of control), DMPK” value (350 wild-type kinases [4]; Assay Conc. 1.0E-05 M) was 69 % of control. The “Residual activity (% of control), DMPK” value (350 wild-type kinases [4]; Assay Conc. 1.0E-06 M) was 106 % of control, the “Residual activity (% of control), BLK” value (350 wild-type kinases [5]; Assay Conc. 1.0E-05 M) was 55 % of control and the “Residual activity (% of control), BLK” value (350 wild-type kinases [5]; Assay Conc. 1.0E-06 M) was 78 % of control. The “Residual activity (% of control), CK1alpha1” value (350 wild-type kinases [6]; Assay Conc. 1.0E-05 M) was 98 % of control, the “Residual activity (% of control), CK1alpha1” value (350 wild-type kinases [6]; Assay Conc. 1.0E-06 M) was 108 % of control and the “Residual activity (% of control), CLK2” value (350 wild-type kinases [7]; Assay Conc. 1.0E-05 M) was 86 % of control. The “Residual activity (% of control), CLK2” value (350 wild-type kinases [7]; Assay Conc. 1.0E-06 M) was 109 % of control, the “Residual activity (% of control), CK2alpha2” value (350 wild-type kinases [8]; Assay Conc. 1.0E-05 M) was 92 % of control and the “Residual activity (% of control), CK2alpha2” value (350 wild-type kinases [8]; Assay Conc. 1.0E-06 M) was 101 % of control. For the same compound, the “Residual activity (% of control), CDK1/CycA2” value (350 wild-type kinases [9]; Assay Conc. 1.0E-05 M) was 62 % of control, the “Residual activity (% of control), CDK1/CycA2” value (350 wild-type kinases [9]; Assay Conc. 1.0E-06 M) was 110 % of control and the “Residual activity (% of control), CDK1/CycB1” value (350 wild-type kinases [9]; Assay Conc. 1.0E-05 M) was 82 % of control. For the same compound, the “Residual activity (% of control), CDK1/CycB1” value (350 wild-type kinases [9]; Assay Conc. 1.0E-06 M) was 105 % of control, the “Residual activity (% of control), CDK1/CycE1” value (350 wild-type kinases [9]; Assay Conc. 1.0E-05 M) was 51 % of control and the “Residual activity (% of control), CDK1/CycE1” value (350 wild-type kinases [9]; Assay Conc. 1.0E-06 M) was 104 % of control. The “Residual activity (% of control), CAMK4” value (350 wild-type kinases [10]; Assay Conc. 1.0E-05 M) was 100 % of control, the “Residual activity (% of control), CAMK4” value (350 wild-type kinases [10]; Assay Conc. 1.0E-06 M) was 113 % of control and the “Residual activity (% of control), AXL” value (350 wild-type kinases [11]; Assay Conc. 1.0E-05 M) was 59 % of control. The “Residual activity (% of control), AXL” value (350 wild-type kinases [11]; Assay Conc. 1.0E-06 M) was 94 % of control, the “Residual activity (% of control), CSF1R” value (350 wild-type kinases [12]; Assay Conc. 1.0E-05 M) was 71 % of control and the “Residual activity (% of control), CSF1R” value (350 wild-type kinases [12]; Assay Conc. 1.0E-06 M) was 100 % of control. The “Residual activity (% of control), CDK6/CycD1” value (350 wild-type kinases [13]; Assay Conc. 1.0E-05 M) was 74 % of control, the “Residual activity (% of control), CDK6/CycD1” value (350 wild-type kinases [13]; Assay Conc. 1.0E-06 M) was 127 % of control and the “Residual activity (% of control), CDK6/CycD2” value (350 wild-type kinases [13]; Assay Conc. 1.0E-05 M) was 80 % of control. The “Residual activity (% of control), CDK6/CycD2” value (350 wild-type kinases [13]; Assay Conc. 1.0E-06 M) was 109 % of control, the “Residual activity (% of control), CDK6/CycD3” value (350 wild-type kinases [13]; Assay Conc. 1.0E-05 M) was 73 % of control and the “Residual activity (% of control), CDK6/CycD3” value (350 wild-type kinases [13]; Assay Conc. 1.0E-06 M) was 94 % of control. The “Residual activity (% of control), CLK4” value (350 wild-type kinases [14]; Assay Conc. 1.0E-05 M) was 43 % of control, the “Residual activity (% of control), CLK4” value (350 wild-type kinases [14]; Assay Conc. 1.0E-06 M) was 80 % of control and the “Residual activity (% of control), AuroraA” value (350 wild-type kinases [15]; Assay Conc. 1.0E-05 M) was 74 % of control. For the same compound, the “Residual activity (% of control), AuroraA” value (350 wild-type kinases [15]; Assay Conc. 1.0E-06 M) was 96 % of control, the “Residual activity (% of control), CLK1” value (350 wild-type kinases [16]; Assay Conc. 1.0E-05 M) was 54 % of control and the “Residual activity (% of control), CLK1” value (350 wild-type kinases [16]; Assay Conc. 1.0E-06 M) was 86 % of control. The “Residual activity (% of control), CIT 1-450” value (350 wild-type kinases [17]; Assay Conc. 1.0E-05 M) was 71 % of control and the “Residual activity (% of control), CIT 1-450” value (350 wild-type kinases [17]; Assay Conc. 1.0E-06 M) was 100 % of control.

— paper PMC12136037, “Type II kinase inhibitors that target Parkinson’s disease–associated LRRK2” (Science Advances, 2025)
